What was measured:
Type in all cases: in vivo
[1] = tested on: Italian ryegrass (Lolium mutiflorum); assay: Test C preemergence, visual plant response rating; conditions: Test C, 0 is no effect, 100 is complete control
How it was run: (§1)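 Seeds sown in a loam–sand blend got a directed preemergence soil spray; postemergence plants (2–10 cm, one- to two-leaf stage) were sprayed with compound in a non-phytotoxic solvent plus surfactant. Injury was scored visually against untreated controls after about 10 d in a greenhouse on a 0–100 scale (100 = complete control).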

[2] = tested on: barnyardgrass (Echinochloa crus-galli); assay: Test C preemergence, visual plant response rating; conditions: Test C, 0 is no effect, 100 is complete control
How it was run: as §1

[3] = tested on: foxtail, giant (giant foxtail, Setaria faberi); assay: Test C preemergence, visual plant response rating; conditions: Test C, 0 is no effect, 100 is complete control
How it was run: as §1

kochia (Bassia scoparia) [4] = assay: Test C preemergence, visual plant response rating; conditions: Test C, 0 is no effect, 100 is complete control
How it was run: as §1

[5] = tested on: pigweed (Amaranthus retroflexus); assay: Test C preemergence, visual plant response rating; conditions: Test C, 0 is no effect, 100 is complete control
How it was run: as §1

[6] = tested on: Italian ryegrass (Lolium mutiflorum); assay: Test C postemergence, visual plant response rating
Excerpt: (§2) Seeds of plant species selected from barnyardgrass (Echinochloa crus-galli), kochia (Bassia scoparia), ragweed (common ragweed, Ambrosia artemisiifolia), Italian ryegrass (Lolium mutiflorum), foxtail, giant (giant foxtail, Setaria faberi), foxtail, green (green foxtail, Setaria viridis), and pigweed (Amaranthus retroflexus) were planted into a blend of loam soil and sand and treated preemergence with a directed soil spray using test chemicals formulated in anon-phytotoxic solvent mixture which included a surfactant.
(§3) At the same time, plants selected from these weed species and also wheat (Triticum aestivum), corn (Zea mays), blackgrass (Alopecurus myosuroides), and galium (catchweed bedstraw, Galium aparine) were planted in pots containing the same blend of loam soil and sand and treated with post emergence applications of test chemicals formulated in the same manner. Plants ranged in height from 2 to 10 cm and were in the one- to two-leaf stage for the postemergence treatment. Treated plants and untreated controls were maintained in a greenhouse for approximately 10 d, after which time all treated plants were compared to untreated controls and visually evaluated for injury. Plant response ratings, summarized in Table C, are based on a 0 to 100 scale where 0 is no effect and 100 is complete control. A dash (-)response means no test result.

[7] = tested on: barnyardgrass (Echinochloa crus-galli); assay: Test C postemergence, visual plant response rating
Excerpt: as §2, §3

[8] = tested on: blackgrass (Alopecurus myosuroides); assay: Test C postemergence, visual plant response rating
Excerpt: as §2, §3

corn (Zea mays) = assay: Test C postemergence, visual plant response rating
Excerpt: as §2, §3

[9] = tested on: foxtail, giant (giant foxtail, Setaria faberi); assay: Test C postemergence, visual plant response rating
Excerpt: as §2, §3

[10] = tested on: galium (catchweed bedstraw, Galium aparine); assay: Test C postemergence, visual plant response rating
Excerpt: as §2, §3

kochia (Bassia scoparia) [11] = assay: Test C postemergence, visual plant response rating
Excerpt: as §2, §3

[12] = tested on: pigweed (Amaranthus retroflexus); assay: Test C postemergence, visual plant response rating
Excerpt: as §2, §3

[13] = tested on: ragweed (common ragweed, Ambrosia artemisiifolia); assay: Test C postemergence, visual plant response rating
Excerpt: as §2, §3

[14] = tested on: wheat (Triticum aestivum); assay: Test C postemergence, visual plant response rating
Excerpt: as §2, §3

[15] = tested on: barnyardgrass (Echinochloa crus-galli); assay: Test D flooded paddy test, visual plant response rating; conditions: 250 g ai/ha, scale 0 to 100 (0 no effect, 100 complete control), 13 to 15 d
How it was run: (§4)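 Plants grown to the 2-leaf stage; pots flooded to 3 cm above soil and compound applied directly into paddy water, depth held throughout. Kept in greenhouse 13 to 15 d, then rated visually against untreated controls on a 0–100 scale (0 no effect, 100 complete control).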

[16] = tested on: duck salad (Heteranthera limosa); assay: as above; conditions: 250 g ai/ha, scale 0 to 100 (0 no effect, 100 complete control), 13 to 15 d
How it was run: as §4

rice (Oryza sativa) = assay: as above; conditions: 250 g ai/ha, scale 0 to 100 (0 no effect, 100 complete control), 13 to 15 d
How it was run: as §4

[17] = tested on: sedge umbrella (small-flower umbrella sedge, Cyperus difformis); assay: as above; conditions: 250 g ai/ha, scale 0 to 100 (0 no effect, 100 complete control), 13 to 15 d
How it was run: as §4

[18] = Test C, postemergence, 125 g ai/ha

Row | Compound | Ryegrass, Italian plant response rating (0 to 100 scale) ([1]; 125 g ai/ha) | Barnyardgrass plant response rating (0 to 100 scale) ([2]; 31 g ai/ha) | Barnyardgrass plant response rating (0 to 100 scale) ([2]; 125 g ai/ha) | Foxtail, Giant plant response rating (0 to 100 scale) ([3]; 31 g ai/ha) | Foxtail, Giant plant response rating (0 to 100 scale) ([3]; 125 g ai/ha) | Kochia plant response rating (0 to 100 scale) (kochia (Bassia scoparia) [4]; 125 g ai/ha) | Pigweed plant response rating (0 to 100 scale) ([5]; 31 g ai/ha) | Pigweed plant response rating (0 to 100 scale) ([5]; 125 g ai/ha) | Ryegrass, Italian plant response rating (0 to 100 scale) ([6]; Postemergence, 31 g ai/ha) | Ryegrass, Italian plant response rating (0 to 100 scale) [6, 18] | Barnyardgrass plant response rating (0 to 100 scale) ([7]; Postemergence, 31 g ai/ha) | Barnyardgrass plant response rating (0 to 100 scale) [7, 18] | Blackgrass plant response rating (0 to 100 scale) ([8]; Postemergence, 31 g ai/ha) | Blackgrass plant response rating (0 to 100 scale) [8, 18] | Corn plant response rating (0 to 100 scale) (corn (Zea mays); Postemergence, 31 g ai/ha) | Corn plant response rating (0 to 100 scale) (corn (Zea mays); [18]) | Foxtail, Giant plant response rating (0 to 100 scale) ([9]; Postemergence, 31 g ai/ha) | Foxtail, Giant plant response rating (0 to 100 scale) [9, 18] | Galium plant response rating (0 to 100 scale) ([10]; Postemergence, 31 g ai/ha) | Galium plant response rating (0 to 100 scale) [10, 18] | further results
1 | C#CCO/N=C(/c1c(O)c(Cl)nn(C)c1=O)c1ccc(F)c2ccccc12 [Compound 205] | 100 | 70 | 100 | 80 | 100 | 70 | 80 | 100 | 70 | 100 | 70 | 90 | 20 | 80 | 0 | 40 | 80 | 100 | 80 | 90 | Ryegrass, Italian plant response rating (0 to 100 scale) ([1]; 31 g ai/ha): 20; Kochia plant response rating (0 to 100 scale) (kochia (Bassia scoparia) [4]; 31 g ai/ha): 0; Kochia plant response rating (0 to 100 scale) (kochia (Bassia scoparia) [11]; Postemergence, 31 g ai/ha): 60; Kochia plant response rating (0 to 100 scale) (kochia (Bassia scoparia) [11]; [18]): 70; Pigweed plant response rating (0 to 100 scale) ([12]; Postemergence, 31 g ai/ha): 90; Pigweed plant response rating (0 to 100 scale) [12, 18]: 100; Ragweed plant response rating (0 to 100 scale) ([13]; Postemergence, 31 g ai/ha): 100; Ragweed plant response rating (0 to 100 scale) [13, 18]: 100; Wheat plant response rating (0 to 100 scale) ([14]; Postemergence, 31 g ai/ha): 20; Wheat plant response rating (0 to 100 scale) [14, 18]: 70; Plant response rating, Barnyardgrass (Flood) [15]: 0; Plant response rating, Ducksalad (Flood) [16]: 0; Plant response rating, Rice (Flood) (rice (Oryza sativa)): 0; Plant response rating, Sedge, Umbrella (Flood) [17]: 0
2 | CO/N=C(/c1c(O)c(Cl)nn(C)c1=O)c1ccc(F)c2ccccc12 [Compound 207] | 80 | 20 | 80 | 30 | 90 | 60 | 50 | 80 | 20 | 80 | 20 | 60 | 30 | 20 | 30 | 10 | 30 | 70 | 90 | 100 | Ryegrass, Italian plant response rating (0 to 100 scale) ([1]; 31 g ai/ha): 40; Kochia plant response rating (0 to 100 scale) (kochia (Bassia scoparia) [4]; 31 g ai/ha): 0; Kochia plant response rating (0 to 100 scale) (kochia (Bassia scoparia) [11]; Postemergence, 31 g ai/ha): 60; Kochia plant response rating (0 to 100 scale) (kochia (Bassia scoparia) [11]; [18]): 70; Pigweed plant response rating (0 to 100 scale) ([12]; Postemergence, 31 g ai/ha): 50; Pigweed plant response rating (0 to 100 scale) [12, 18]: 80; Ragweed plant response rating (0 to 100 scale) ([13]; Postemergence, 31 g ai/ha): 30; Ragweed plant response rating (0 to 100 scale) [13, 18]: 90; Wheat plant response rating (0 to 100 scale) ([14]; Postemergence, 31 g ai/ha): 0; Wheat plant response rating (0 to 100 scale) [14, 18]: 0; Plant response rating, Barnyardgrass (Flood) [15]: 0; Plant response rating, Ducksalad (Flood) [16]: 0; Plant response rating, Rice (Flood) (rice (Oryza sativa)): 0; Plant response rating, Sedge, Umbrella (Flood) [17]: 0
3 | C#CCO/N=C(\c1c(O)c(Cl)nn(C)c1=O)c1ccc(F)c2ccccc12 [Compound 220] | 100 | 0 | 90 | 20 | 100 | 60 | 30 | 100 | 70 | 100 | 40 | 80 | 30 | 80 | 10 | 40 | 60 | 100 | 70 | 100 | Ryegrass, Italian plant response rating (0 to 100 scale) ([1]; 31 g ai/ha): 30; Kochia plant response rating (0 to 100 scale) (kochia (Bassia scoparia) [4]; 31 g ai/ha): 0; Kochia plant response rating (0 to 100 scale) (kochia (Bassia scoparia) [11]; Postemergence, 31 g ai/ha): 50; Kochia plant response rating (0 to 100 scale) (kochia (Bassia scoparia) [11]; [18]): 80; Pigweed plant response rating (0 to 100 scale) ([12]; Postemergence, 31 g ai/ha): 80; Pigweed plant response rating (0 to 100 scale) [12, 18]: 100; Ragweed plant response rating (0 to 100 scale) ([13]; Postemergence, 31 g ai/ha): 60; Ragweed plant response rating (0 to 100 scale) [13, 18]: 100; Wheat plant response rating (0 to 100 scale) ([14]; Postemergence, 31 g ai/ha): 40; Wheat plant response rating (0 to 100 scale) [14, 18]: 90; Plant response rating, Barnyardgrass (Flood) [15]: 0; Plant response rating, Ducksalad (Flood) [16]: 0; Plant response rating, Rice (Flood) (rice (Oryza sativa)): 0; Plant response rating, Sedge, Umbrella (Flood) [17]: 0
4 | CO/N=C(\c1c(OC(C)=O)c(Cl)nn(C)c1=O)c1cc(Br)cc2ccccc12 [Compound 231] | 0 | 60 | 90 | 30 | 90 | 0 | 40 | 50 | 0 | 10 | 30 | 70 | 10 | 20 | 0 | 20 | 30 | 70 | 70 | 100 | Kochia plant response rating (0 to 100 scale) (kochia (Bassia scoparia) [11]; Postemergence, 31 g ai/ha): 10; Kochia plant response rating (0 to 100 scale) (kochia (Bassia scoparia) [11]; [18]): 20; Pigweed plant response rating (0 to 100 scale) ([12]; Postemergence, 31 g ai/ha): 20; Pigweed plant response rating (0 to 100 scale) [12, 18]: 60; Ragweed plant response rating (0 to 100 scale) ([13]; Postemergence, 31 g ai/ha): 100; Ragweed plant response rating (0 to 100 scale) [13, 18]: 100; Wheat plant response rating (0 to 100 scale) ([14]; Postemergence, 31 g ai/ha): 0; Wheat plant response rating (0 to 100 scale) [14, 18]: 0; Plant response rating, Barnyardgrass (Flood) [15]: 15; Plant response rating, Ducksalad (Flood) [16]: 75; Plant response rating, Rice (Flood) (rice (Oryza sativa)): 0; Plant response rating, Sedge, Umbrella (Flood) [17]: 30

From patent publication US20210045385A1, “PYRIDAZINONE-SUBSTITUTED KETOXIMES AS HERBICIDES” (FMC Corporation, priority 2018, published 2021)
